Data taken from patent US20060173080A1, “Methods of modulating TNF using bupropion” (The Regents of the University of California, priority 2002, published 2006).
“Also recorded” adds a separate entry of the source. Where a name gives a salt, the structure may show the parent alone.

What was measured:
[1] = test system: platelet and leukocyte numbers in peripheral blood; experiment: Platelet and leukocyte counts in peripheral blood 4 h after LPS challenge; format: in vivo, BALB/c mice; conditions: bupropion 100 mg/kg i.p. 1 h before LPS, hydrochloride
Description: FIG. 6 is a bar graph depicting normalization of platelet and leukocyte levels by bupripion treatment. Groups of BALB/c mice were injected with bupropion 100 mg/kg (Wellbutrin, Glaxo) or with placebo i.p. in saline 1 h before challenge with 600 μg of LPS (DL-100) by i.p. route. Platelet and leukocyte numbers were evaluated in peripheral blood samples collected 4 h after LPS challenge in an automated cell counter (Bayer). * P<0.05 placebo compared with normal levels; # P<0.05 bupropion compared with placebo. In a shock often platelet levels drop precipitously due to intravascular coagulation and leukocyte also fall secondary to TNF induced apoptosis. The normalization by bupropion is consistent with the other effects of bupropion in this model.
Groups of mice were injected intraperitoneally (i.p.) with a dose of 600 μg of LPS (from Escherichia coli serotype 0111 :B4, Sigma, St. Louis, Mo., USA) in saline (previously determined as LD 100) 1 h after injection of placebo or bupropion. In some experiments, groups of mice received i.p. injection of propranolol (1 mg/Kg), SCH23390 (25 μg/kg) and sulpiride (25 mg/Kg) 1 h prior to injection of bupropion. […]. To determine serum TNF, IL-1 beta and IL-10 levels, mice were sacrificed 90 min after injection of LPS and bled by axilar vein puncture. […]

IL-10 = experiment: Serum IL-10 by ELISA in LPS-challenged mice; format: in vivo, BALB/c mice; conditions: bupropion 100 mg/kg i.p. 1 h before 600 μg LPS i.p., serum 90 min after LPS, hydrochloride
Description: To study the immunomodulatory effects of bupropion we used a mouse model in which TNF production is induced by stimulation with lipopolysaccharide (LPS) (Bozza et al, The PACAP-type I receptor agonist maxadilan from sand fly saliva protects mice against lethal endotoxemia by a mechanism partially dependent on IL-10, Eur. J. Immunol. 28, 3120-3127, 1998). BALB/c mice were injected intraperitoneally (i.p.) with bupropion or placebo 1 h prior to i.p. injection of LPS (600 ug/mouse).
Male, 6 weeks old BALB/c mice were used in LPS-induced shock experiments. […]
TNF, IL-1beta, IFN-gamma and IL-10 concentrations in serum samples or in supernatants from macrophage cultures were determined by enzyme-linked immunosorbent assay (ELISA) using antibody pairs and recombinant cytokines from R&D systems (Minneapolis, Minn., USA), according to the manufacturer's instructions. After incubation with streptoavidin-peroxidase conjugate (Sigma), the reaction was developed using 3,3′, 5,5′-tetramethylbenzidine (TMB) peroxidase substrate and read at 450 nm. The serum concentration of nitrite (NO2−) was determined by the Griess reaction, as an indicator of nitric oxide production (Green et al., Analysis of nitrate nitrite and [^15N] nitrite in biological fluids. Anal. Biochem 126, 131-138, 1982). […] The absorbance of the reaction product at 540 nm was measured using an ELISA reader. […]

major depression = experiment: Course of major depression in the case patients on bupropion; format: in vivo, human; conditions: case patients on bupropion 150 mg BID or TID; hydrochloride
Description: After careful review of treatment options, they were started on bupropion (fluoxetine was stopped) with up-titration to 150 mg twice a day. Their abdominal complaints eased over the next months, and the major depression remitted. The baseline dysthymia remained. To better treat the dysthymia, bupropion was raised to 150 mg three times daily with a further lowering of their CDAI. The mesalamine was tapered off. Their CDAI is currently approximately zero. They have one well-formed bowel movement daily and has been without abdominal symptoms or encopresis for 19 months now. They have had no CD flares since starting bupropion. Twice in the last year, they stopped bupropion on their own accord because they felt completely well and felt they didn't need bupropion anymore. […] A person with NYSHA Class I CHF who started on bupropion for major depression. Their TNF before bupropion was 347 pg/ml and 5 pg/ml after two months on bupropion 150 mg twice a day (BID). […] In addition, a person with a history of two myocardial infarctions and NYSHA Class II CHF, who started on bupropion for major depression and desire to stop a 1.5 container/day chewing tobacco habit. Their TNF before starting bupropion was 433 pg/ml, and […] and then four weeks on bupropion 150 mg three times a day (TID). They subsequently stopped using tobacco and their depression is in remission.

BALB/c mice = experiment: LPS-induced shock model: survival and signs of endotoxemia after lethal LPS challenge; format: in vivo; conditions: for survival after lethal LPS challenge: mouse, in vivo, hydrochloride
Description: Male BALB/c mice were injected with 11, 33 or 100 mg/kg of bupropion or with placebo i.p. in saline 1 h before challenge with 600 μg of E. coli LPS (Sigma, St. Louis, Mo.) by i.p. route. Mice were sacrificed 90 min for detection of cytokines in the serum by sandwich ELISA. Values represent the means±SEM of 5 mice per group. * P<0.05.
BALB/c mice were injected intraperitoneally (i.p.) with bupropion or placebo 1 h prior to i.p. injection of LPS (600 ug/mouse).
Male, 6 weeks old BALB/c mice were used in LPS-induced shock experiments. All mice were raised and maintained at the animal facilities at the Goncalo Moniz Research Center-FIOCRUZ, and provided with rodent diet and water ad libitum. Animal numbers in experimental groups were the minimum necessary to permit statistical analysis. All animals were sacrificed under anaesthesia.
In some experiments, groups of mice received i.p. injection of propranolol (1 mg/Kg), SCH23390 (25 μg/kg) and sulpiride (25 mg/Kg) 1 h prior to injection of bupropion. […] To determine serum TNF, IL-1 beta and IL-10 levels, mice were sacrificed 90 min after injection of LPS and bled by axilar vein puncture. Levels of IFN-gamma and nitric oxide were assayed using sera of mice sacrificed 4 h after LPS injection. Platelet and leukocyte cell counts were performed using blood collected with EDTA after 4 h of LPS challenge, using an automated cell counter (ADVIA 60, Bayer).

TNF = conditions: Altschuler and Kast 2003; cited from earlier work

CC(NC(C)(C)C)C(=O)c1cccc(Cl)c1 (racemic) [bupropion, (.±.)-1-(3-chlorophenyl)-2-[(1,1-dimethylethyl)amino]-1-propanone hydrochloride]
leukocyte levels [1]: higher leukocyte levels; also recorded: normalization
platelet counts [1]: significantly higher than placebo treated mice and similar to those of normal mice; also recorded: normalization
serum IL-10 level compared with placebo (IL-10): significantly raised
serum IL-10 level compared with placebo (IL-10; listed as Bupropion): significantly increased
depression outcome (major depression): partially controlled; also recorded: in remission; also recorded: remitted
signs of endotoxemia (diarrhea, immobility, lethargy, piloerection, shivering) (BALB/c mice; bupropion 100 mg/kg, compared with placebo): milder or absent
survival after lethal LPS challenge (BALB/c mice): protects mice
survival after lethal LPS challenge (BALB/c mice; listed as bupropion hydrochloride): increased survival rates
survival after lethal LPS challenge (BALB/c mice; listed as buproprion): significantly increased the survival time
circulating TNF levels (TNF): lowers
